Measurements: US12486227B2, “Small molecules for cancer therapy that reduce the expression of transcription factors KLF5 and EGR-1” (University of Florida Research Foundation, Incorporated, priority 2019, dated 2025)
pEC50, pIC50: −log10 of the molar value. Like-named read-outs stand apart in the source and are kept apart here.

What was measured:
[1] = test system: DLD-1 colon cancer cells; assay: MTT viability assay, DLD-1; format: cell-based; conditions: Homo sapiens; for pEC50: Table 2, read-out: Approximate potency (EC50 · mol/L) (DLD1, MTT assay)
Source text: Specific Examples of compounds of the present disclosure have EC50 values estimated using a cell-based assay for binding to the KLF5 promoter and, in many cases, a follow-up viability assay (MTT) using DLD-1 colon cancer cells, a cell line known to highly express KLF5 and whose growth is adversely affected by the reduction of KLF5 levels. Assay protocols follow those described in the literature.^22,23 Other assays that are not described here but that are standard in the field may also be useful in establishing mechanism of action of these compounds.

[2] = test system: human KLF5 promoter; assay: KLF5 promoter activity luciferase assay in DLD-1/pGL4.18hKLF5p cells; format: cell-based; conditions: for pEC50: read-out: Approximate potency (EC50 · mol/L) (luciferase)
Protocol: To examine the impact of these compounds on viability of CRC cell lines, we performed cell proliferation and cell growth assays using DLD-1 and HCT116 CRC cells. […] KLF5 promoter activity assay. DLD-1/pGL4.18hKLF5p cells were seeded in 96 well plate format and treated with DMSO or with test compounds dissolved in DMSO in the range of 0.001 to 20 μM final concentration for 24 h and the human KLF5 promoter activity was determined with the ONE-Glo luciferase assay system (Promega) using a SpectramMax M3 (Molecular Devices) plate reader. The IC50 values were calculated using GraphPad Prism version 5.00 for Windows (GraphPad Software) (22).

[3] = test system: SW-620 colorectal cancer cell line; assay: MTT growth assay, SW-620; format: cell-based; conditions: Homo sapiens, Table 1
Source text: (§1) The observed activity is greater than that previously seen for ML264.

[4] = test system: DLD-1 and HCT116 CRC cells; assay: Cell cycle analysis by flow cytometry (propidium iodide); format: cell-based, human; conditions: 10 μM, over three days
Protocol: SR18662 alters the cell cycle pattern of CRCs. […] We have also evaluated the impact of SR15006 and SR18662 on cell cycle progression. We treated DLD-1 and HCT116 CRC cells over the course of three days with vehicle or 1 μM or 10 μM of test compound and then analyzed cell cycle using flow cytometry.
Cell proliferation, cell cycle and apoptosis assays. For cell proliferation experiments, cell cycle, and apoptosis determination, DLD-1 and HCT116 cells were treated with 1 or 10 μM of each compound or with vehicle (DMSO). The cells were collected at 24, 48, and 72 h post-treatment and analyzed as previously described (24). Each experiment was performed in triplicate.

[5] = test system: HT-29 colorectal cancer cell line; assay: MTT growth assay, HT-29; format: cell-based; conditions: Homo sapiens, Table 1
Source text: as §1

[6] = test system: MAPK pathway; assay: Western blot of MAPK signaling pathway components; format: cell-based, human; conditions: DLD-1 and HCT116, 10 μM, 72 h
Source text: SR18662 negatively regulates MAPK and WNT signaling pathway and cyclin levels. Myriad publications have shown that in both in vitro and in vivo contexts KLF5 is regulated by MAPK and WNT signaling pathways and that KLF5, in turn, has the ability to modulate the activity of these pathways (14, 18, 26-32). We have previously shown that treatment of CRCs with ML264 results in decreased activity of both the MAPK and WNT signaling pathways (24). Because SR15006 and SRI8662 are structurally related to ML264, we decided to investigate their ability to alter the expression levels of the components of these pathways. Thus, we treated DLD-1 and HCT116 CRCs with DMSO (vehicle) and tested compounds at 1 μM or 10 μM, collecting the cells for western blot analysis at 24, 48, and 72 h. […] Similar effects were seen when both cell lines were treated these compounds at 1 μM. Furthermore, the inhibitory effects of SR18662 on the components of the MAPK signaling pathway we observed at earlier time points than were apparent following treatment with ML264 or SR15006.
(§2) Western blot analysis. Total protein was extracted from cells with Laemmli buffer and the analysis was performed as described previously (24).

[7] = test system: KLF5; assay: Western blot of KLF5 protein levels in DLD-1 cells; format: cell-based, human; conditions: 1 μM and 10 μM, 24 h
Protocol: In this experiment the test compounds were at 1 μM and 10 μM, and protein levels were measured after 24 h.
as §2

[8] = test system: DLD-1-derived tumor xenografts; conditions: once a day 25 mg/kg; cited from earlier work
[9] = test system: Cyclin D1, E, A2, and B1; assay: Western blot of cyclin levels; format: cell-based, human; conditions: DLD-1 and HCT116, 1 μM or 10 μM, 72 h
Source text: Cyclins and their appropriate cyclin-dependent kinases form a regulatory network that allow cells to progress through the cell cycle (39, 40). […] SR15006, or SR18662, as compared to vehicle-treated cells. Thus, we investigated if these changes are accompanied by differences in the expression levels of cyclins. We focused our attention on Cyclin D1, E, A2, and B1, as we have previously shown that ML264 has inhibitory effect on their levels (24). […] Additionally, in contrast to ML264 or SR15006, SR18862 induced apoptosis and cell death.
as §2

[10] = test system: HCT-116 colorectal cancer cell line; assay: MTT growth assay, HCT-116; format: cell-based; conditions: Homo sapiens, Table 1
Source text: as §1

| SMILES | pEC50 [1] | pEC50 ([2]; Homo sapiens, DLD-1, Table 2) | also measured |
| --- | --- | --- | --- |
| CS(=O)(=O)N1CCN(C(=O)CNC(=O)/C=C/c2ccc(C(F)(F)F)c(Cl)c2)CC1 [Example 16, (E)-3-(3-chloro-4-(trifluoromethyl)phenyl)-N-(2-(4-(methylsulfonyl)piperazin-1-yl)-2-oxoethyl)acrylamide] | 6.50 | – | Approximate potency (EC50 · mol/L) (luciferase) ([2]; Table 2): Not converged |
| CC(C)CS(=O)(=O)N1CCN(C(=O)CNC(=O)/C=C/c2cccc(Cl)c2)CC1 [Example 8, (E)-3-(3-chlorophenyl)-N-(2-(4-(isobutylsulfonyl)piperazin-1-yl)-2-oxoethyl)acrylamide] | 6.49 | 5.15 | – |
| CS(=O)(=O)NCC1CCN(C(=O)CNC(=O)/C=C/c2cccc(Cl)c2)CC1 [Example 2, (E)-3-(3-chlorophenyl)-N-(2-(4-(methylsulfonamidomethyl)piperidin-1-yl)-2-oxoethyl)acrylamide] | 6.85 | 5.85 | – |
| COc1ccc(/C=C/C(=O)NCC(=O)N2CCN(S(C)(=O)=O)CC2)cc1Cl [Example 10, (E)-3-(3-chloro-4-methoxyphenyl)-N-(2-(4-(methylsulfonyl)piperazin-1-yl)-2-oxoethyl)acrylamide] | 7.20 | 6.77 | – |
| CS(=O)(=O)N1CCN(C(=O)CNC(=O)/C=C/c2ccc3c(c2)OCO3)CC1 [Example 18, (E)-3-(benzo[d][1,3]dioxol-5-yl)-N-(2-(4-(methylsulfonyl)piperazin-1-yl)-2-oxoethyl)acrylamide] | 7.82 | 7.70 | – |
| CS(=O)(=O)N1CCCN(C(=O)CNC(=O)/C=C/c2cccc(Cl)c2)CC1 [Example 6, (E)-3-(3-chlorophenyl)-N-(2-(4-(methylsulfonyl)-1,4-diazepan-1-yl)-2-oxoethyl)acrylamide] | – | 5.97 | – |
| O=C(/C=C/c1cccc(Cl)c1)NCC(=O)N1CCN(S(=O)(=O)C2CCCCC2)CC1 [Example 7, (E)-3-(3-chlorophenyl)-N-(2-(4-(cyclohexylsulfonyl)piperazin-1-yl)-2-oxoethyl)acrylamide] | 6.46 | 5.89 | – |
| CS(=O)(=O)N1CCN(C(=O)CNC(=O)/C=C/c2ccc(F)c(F)c2)CC1 [Example 14, (E)-3-(3,4-difluorophenyl)-N-(2-(4-(methylsulfonyl)piperazin-1-yl)-2-oxoethyl)acrylamide] | 7.39 | 7.34 | – |
| CS(=O)(=O)NCC1CCN(C(=O)CNC(=O)/C=C/c2cccc(Cl)c2)C1 (centres unmarked) [Example 3, (E)-3-(3-chlorophenyl)-N-(2-(3-(methylsulfonamidomethyl)pyrrolidin-1-yl)-2-oxoethyl)acrylamide] | – | 6.07 | – |
| CS(=O)(=O)N1CCC(CNC(=O)CNC(=O)/C=C/c2cccc(Cl)c2)CC1 [Example 4, (E)-3-(3-chlorophenyl)-N-(2-(((1-(methylsulfonyl)piperidin-4-yl)methyl)amino)-2-oxoethyl)acrylamide] | 5.56 | – | – |
| CS(=O)(=O)N1CCN(C(=O)CNC(=O)/C=C/c2cc(Cl)cc(Cl)c2)CC1 [Example 13, (E)-3-(3,5-dichlorophenyl)-N-(2-(4-(methylsulfonyl)piperazin-1-yl)-2-oxoethyl)acrylamide] | 7.11 | 6.97 | – |
| CS(=O)(=O)N1CCN(C(=O)CNC(=O)/C=C/c2ccc(OC(F)(F)F)c(Cl)c2)CC1 [Example 17, (E)-3-(3-chloro-4-(trifluoromethoxy)phenyl)-N-(2-(4-(methylsulfonyl)piperazin-1-yl)-2-oxoethyl)acrylamide] | 5.79 | 5.10 | – |
| CN(C(=O)CNC(=O)/C=C/c1cccc(Cl)c1)C1CCS(=O)(=O)CC1 [ML264, reference compound] | – | – | pEC50 [3]: 6.39; cell cycle distribution [4]: significant decrease in the number of cells in G0/G1 and an increase in cells in S- and G2/M phases; EC50 [5]: 295 nM; EC50 ([1]; MTT, Table 1, read-out: EC50 (nM) DLD-1): 13 nM; expression levels of MAPK pathway components [6]: negatively regulated the expression levels of the components of the MAPK pathway; KLF5 protein levels by Western blot [7]: significantly reduced; growth of CRC xenografts [8]: significantly reduced the growth; levels of cyclins [9]: significant reduction in the levels of tested cyclins; EC50 [10]: 34 nM |
| CS(=O)(=O)N1CCN(C(=O)CNC(=O)/C=C/c2cccc(Br)c2)CC1 [Example 12, (E)-3-(3-bromophenyl)-N-(2-(4-(methylsulfonyl)piperazin-1-yl)-2-oxoethyl)acrylamide] | 7.13 | 7.06 | – |
| CS(=O)(=O)N1CCN(C(=O)CNC(=O)/C=C/c2ccc(F)c(Cl)c2)CC1 [Example 11, (E)-3-(3-chloro-4-fluorophenyl)-N-(2-(4-(methylsulfonyl)piperazin-1-yl)-2-oxoethyl)acrylamide] | 7.60 | 7.58 | – |
| Cc1ccc(/C=C/C(=O)NCC(=O)N2CCN(S(C)(=O)=O)CC2)cc1Cl [Example 15, (E)-3-(3-chloro-4-methylphenyl)-N-(2-(4-(methylsulfonyl)piperazin-1-yl)-2-oxoethyl)acrylamide] | 8.44 | 8.20 | – |
| CS(=O)(=O)N1CCC(CNC(=O)CNC(=O)/C=C/c2cccc(Cl)c2)C1 (centres unmarked) [Example 5, (E)-3-(3-chlorophenyl)-N-(2-(((1-(methylsulfonyl)pyrrolidin-3-yl)methyl)amino)-2-oxoethyl)acrylamide] | 8.49 | – | – |
| CS(=O)(=O)N1CCN(C(=O)CNC(=O)/C=C/c2cccc(Cl)c2)CC1 [Example 1, (E)-3-(3-chlorophenyl)-N-(2-(4-(methylsulfonyl)piperazin-1-yl)-2-oxoethyl)acrylamide] | 7.79 | 7.38 | cell cycle distribution [4]: affected the cell cycle in the similar way as did ML264; expression levels of MAPK pathway components [6]: negatively regulated the expression levels of the components of the MAPK pathway; pIC50 ([2]; Homo sapiens, DLD-1, 24 h treatment, FIG. 1B, read-out: IC50, human KLF5 promoter activity): 7.38; KLF5 protein levels by Western blot [7]: significantly reduced; levels of cyclins [9]: significant reduction in the levels of tested cyclins |
